Legend:
Type in all cases: in vivo
[1] = tested on: Heterozygous GAT-HRA corn; experiment: Postemergence test of herbicides on corn (fresh weight, visual injury); conditions: for Fresh Weight: fresh shoots weighed 2 weeks after treatment
[2] = tested on: Heterozygous GAT-HRA corn; experiment: Preemergence test of ALS herbicides on corn (fresh weight, visual injury); conditions: 200 g/ha, mean of four replications; for Fresh Weight: fresh shoots weighed 4 weeks after treatment; for % Visual Injury: 0% no injury, 100% plant death
[3] = tested on: parent elite stiff stalk inbred corn; experiment: Postemergence test of herbicides on corn (fresh weight, visual injury)
[4] = tested on: parent elite stiff stalk inbred corn; experiment: Preemergence test of ALS herbicides on corn (fresh weight, visual injury); conditions: 200 g/ha, mean of four replications; for Fresh Weight: fresh shoots weighed 4 weeks after treatment; for % Visual Injury: 0% no injury, 100% plant death
[5] = tested on: control maize; experiment: Evaluation of herbicide tolerance, spray at V2 stage; conditions: postemergence; tribenuron, chlorimuron, imazapyr 200 g ai/ha; metsulfuron-methyl 35 g ai/ha
[6] = tested on: GAT-HRA maize; experiment: as above; conditions: postemergence; tribenuron, chlorimuron, imazapyr 200 g ai/ha; metsulfuron-methyl 35 g ai/ha
Procedure: GAT-HRA maize plants were evaluated for tolerance to glyphosate and other herbicides. One protocol used in this evaluation was as follows. At the V2 stage (Ritchie and Hanway (1982), “How a corn plant develops” Spec. Rep. 48. (Coop. Ext. Ser., Iowa State Univ., Ames, Iowa)), plant heights were measured and herbicides were applied by spray application. Ten to fourteen days after the spray application, the transgenic plants were evaluated for injury symptoms and measured for plant height again in order to determine plant growth rates.
Plants were then evaluated at various times after treatment, such as 10 or 14 days after treatment. […] Leaf samples were taken from GAT-HRA plants and used in quantitative PCR analysis and other analyses to determine the number and arrangement of copies of the GAT and HRA polynucleotides that had been integrated into the plant genome.
Other protocols for evaluation included treatment with imidazolinone herbicides, such as the commercial herbicide Lightning® (a combination of imazapyr and imazethapyr), which was applied to GAT-HRA maize at the V2 leaf stage at four times the field label rate (250 g ai/ha). […] Another protocol for evaluation included treatment with imidazolinone herbicides as well as sulfonylurea and glyphosate herbicides. In these tests, GAT-HRA maize was treated with various combinations of Lightning® (imazapyr and imazethapyr), Basis® (rimsulfuron and thifensulfuron-methyl) and WeatherMAX® (glyphosate potassium salt). These herbicides were applied at the V2 stage as follows: Lightning® at twice the field label rate (1.8 oz ai/ac (133 ml ai/ha)), Basis® at twice the field label rate (0.5 oz ai/ac (36.9 ml ai/ha)) and WeatherMax® at four times the field label rate (43 oz ai/ac). Fourteen days after the treatment application, the plants were evaluated. […] “Field label rate” refers to the application rate specified on the product label. Where the application rate for a particular situation is a range of rates, as used herein, the term “field label rate” indicates the upper end of that range. […]

[7] = tested on: Hairy Fleabane (Conyza bonariensis); experiment: Glyphosate, metsulfuron-methyl and two additives on the control of hairy fleabane
Procedure: This example included the same treatments as used in Example 11, except the treatments were carried out on a glyphosate sensitive biotype of Kleinskraalhans (Conyza bonariensis).

[8] = tested on: non-glyphosate resistant ryegrass (70-04); experiment: Glyphosate, metsulfuron-methyl and two additives on the control of ryegrass; conditions: 5-6 leaf stage
Procedure: The example was conducted on non-glyphosate resistant ryegrass. As provided in Table 23, all treatments that included glyphosate [180 g a.i. L ha^−1 (0.5 L glyphosate (SCAT®))] plus metsulfuron-methyl (BRUSH-OFF®) (5 and 10 g ha^−1) gave 100% control of the ryegrass.

[9] = 200 g/ha, 0% no injury, 100% plant death, mean of four replications
[10] = 200 g/ha, mean of four replications
[11] = 200 g/ha, fresh shoots weighed 2 weeks after treatment, mean of four replications

## CCOc1nc(F)cc2nc(S(=O)(=O)Nc3c(Cl)cccc3C(=O)OC)nn12 [Chloransulam-methyl, methyl 3-chloro-2-[[(5-ethoxy-7-fluoro-[1,2,4]triazolo[1,5-c]pyrimidin-2-yl)sulfonyl]amino]benzoate]
[1]; [9]
  % Visual Injury: 3%
[1]; [10]
  Fresh Weight: 104.4 g
[2]
  Fresh Weight: 44.9 g
[3]; [9]
  % Visual Injury: 96%
[3]; [11]
  Fresh Weight: 6.8 g
[4]
  Fresh Weight: 5.5 g

## CCOC(=O)c1ccccc1S(=O)(=O)NC(=O)Nc1nc(Cl)cc(OC)n1 [Chlorimuron-ethyl, ethyl 2-[[[[(4-chloro-6-methoxy-2-pyrimidinyl)amino]carbonyl]amino]sulfonyl]-benzoate]
[1]; [9]
  % Visual Injury: 15%
[5]
  damage from the treatment: severely damaged or killed
[2]
  % Visual Injury: 10%
[3]; [9]
  % Visual Injury: 93%
[4]
  % Visual Injury: 100%
  Fresh Weight: 9.3 g
[6]
  damage from the treatment: no significant damage

## CCOc1nc(NC)nc(NC(=O)NS(=O)(=O)c2ccccc2C(=O)OC)n1 [Ethametsulfuron-methyl, methyl 2-[[[[[4-ethoxy-6-(methylamino)-1,3,5-triazin-2-yl]amino]carbonyl]amino]sulfonyl]benzoate]
[1]; [9]
  % Visual Injury: 6%
[1]; [10]
  Fresh Weight: 98.0 g
[2]
  % Visual Injury: 88%
[3]; [9]
  % Visual Injury: 96%
[3]; [11]
  Fresh Weight: 5.6 g
[4]
  % Visual Injury: 100%
  Fresh Weight: 1.6 g

## COc1nn(C(=O)NS(=O)(=O)c2ccccc2OC(F)(F)F)c(=O)n1C [Flucarbazone Na^+, 4,5-dihydro-3-methoxy-4-methyl-5-oxo-N-[[2-(trifluoromethoxy)phenyl]sulfonyl]-1H-1,2,4-triazole-1-carboxamide]
[1]; [9]
  % Visual Injury: 14%
[1]; [10]
  Fresh Weight: 86.0 g
[2]
  % Visual Injury: 40%
  Fresh Weight: 48.8 g
[3]; [9]
  % Visual Injury: 100%
[3]; [11]
  Fresh Weight: 3.1 g
[4]
  % Visual Injury: 100%
  Fresh Weight: 0.0 g

## COC(=O)c1ccc(C(F)(F)F)nc1S(=O)(=O)NC(=O)Nc1nc(OC)cc(OC)n1 [Flupyrsulfuron-methyl Na^+, methyl 2-[[[[(4,6-dimethoxy-2-pyrimidinyl)amino]carbonyl]amino]sulfonyl]-6-(trifluoromethyl)-3-pyridinecarboxylate]
[1]; [9]
  % Visual Injury: 4%
[1]; [10]
  Fresh Weight: 95.5 g
[2]
  % Visual Injury: 90%
  Fresh Weight: 45.8 g
[3]; [9]
  % Visual Injury: 95%
[3]; [11]
  Fresh Weight: 5.2 g
[4]
  % Visual Injury: 87%
  Fresh Weight: 23.6 g

## CP(=O)(O)CCC(N)C(=O)O (stereo not shown) [Glufosinate ammonium]
[1]; 1870 g/ha
  % Visual Injury: 1%
[3]; 1870 g/ha
  % Visual Injury: 99%
[3]; 1870 g/ha, 2 weeks after treatment
  Fresh Weight: 2.4 g

## COC(=O)c1c(Cl)nn(C)c1S(=O)(=O)NC(=O)Nc1nc(OC)cc(OC)n1 [Halosulfuron-methyl, methyl 3-chloro-5-[[[[(4,6-dimethoxy-2-pyrimidinyl)amino]-carbonyl]amino]sulfonyl]-1-methyl-1H-pyrazole-4-carboxylate]
[1]; [9]
  % Visual Injury: 8%
[2]
  % Visual Injury: 15%
[3]; [9]
  % Visual Injury: 14%
[4]
  % Visual Injury: 30%

## CC(C)C1(C)N=C(c2ncccc2C(=O)O)NC1=O (stereo not shown) [Imazapyr]
[5]
  damage from the treatment: severely damaged or killed
[6]
  damage from the treatment: no significant damage

## COC(=O)c1ccc(I)cc1S(=O)(=O)NC(=O)Nc1nc(C)nc(OC)n1 [Iodosulfuron-methyl Na^+, methyl 4-iodo-2-[[[[(4-methoxy-6-methyl-1,3,5-triazin-2-yl)amino]carbonyl]amino]sulfonyl]benzoate]
[1]; [9]
  % Visual Injury: 1%
[1]; [10]
  Fresh Weight: 95.0 g
[2]
  % Visual Injury: 5%
  Fresh Weight: 52.5 g
[3]; [9]
  % Visual Injury: 100%
[3]; [11]
  Fresh Weight: 3.5 g
[4]
  % Visual Injury: 92%
  Fresh Weight: 24.4 g

## COC(=O)c1ccccc1S(=O)(=O)NC(=O)Nc1nc(C)nc(OC)n1 [Metsulfuron-methyl (BRUSH-OFF ®)]
[7]; Trial 2: metsulfuron-methyl (BRUSH-OFF) 5 g/ha
  Control (%): 100%
[7]; Trial 3: metsulfuron-methyl (BRUSH-OFF) 10 g/ha
  Control (%): 100%

## COC(=O)c1ccccc1S(=O)(=O)NC(=O)Nc1nc(C)nc(OC)n1 [Metsulfuron-methyl, methyl 2-[[[[(4-methoxy-6-methyl-1,3,5-triazin-2-yl)amino]carbonyl]amino]sulfonyl]benzoate]
[5]
  damage from the treatment: severely damaged or killed
[8]
  effect on the ryegrass, on its own: did nothing accept stunt the ryegrass plants slightly
[4]
  Fresh Weight: 0.0 g
[6]
  damage from the treatment: no significant damage

## CCCOc1nn(C(=O)NS(=O)(=O)c2ccccc2C(=O)OC)c(=O)n1C [Propoxycarbazone Na^+, methyl 2-[[[(4,5-dihydro-4-methyl-5-oxo-3-propoxy-1H-1,2,4-triazol-1-yl)carbonyl]amino]sulfonyl]benzoate]
[1]; [9]
  % Visual Injury: 9%
[1]; [10]
  Fresh Weight: 101.2 g
[2]
  % Visual Injury: 100%
  Fresh Weight: 46.7 g
[3]; [9]
  % Visual Injury: 100%
[3]; [11]
  Fresh Weight: 1.9 g
[4]
  % Visual Injury: 100%
  Fresh Weight: 0.6 g

## CO/N=C(/C)c1cccc(Oc2nc(OC)cc(OC)n2)c1C(=O)OC [Pyriminobac-methyl]
[1]; [9]
  % Visual Injury: 4%
[2]
  % Visual Injury: 20%
[3]; [9]
  % Visual Injury: 93%
[3]; [11]
  Fresh Weight: 7.6 g
[4]
  % Visual Injury: 83%

## COc1cc(OC)nc(Sc2cccc(Cl)c2C(=O)[O-])n1.[Na+] [Pyrithiobac Na^+, Pyrithiobac]
[1]; [10]
  Fresh Weight: 87.9 g
[2]
  Fresh Weight: 48.6 g
[3]; [11]
  Fresh Weight: 2.8 g
[4]
  Fresh Weight: 0.0 g

## COC(=O)c1ccccc1S(=O)(=O)NC(=O)Nc1nc(C)cc(C)n1 [Sulfometuron-methyl, methyl 2-[[[[(4,6-dimethyl-2-pyrimidinyl)amino]carbonyl]amino]sulfonyl]-benzoate]
[1]; [9]
  % Visual Injury: 2%
[2]
  % Visual Injury: 6%
[3]; [9]
  % Visual Injury: 100%
[3]; [11]
  Fresh Weight: 2.0 g
[4]
  % Visual Injury: 100%
  Fresh Weight: 0.0 g

## COc1cc(OC)nc(NC(=O)NS(=O)(=O)c2ncccc2OCC(F)(F)F)n1 [Trifloxysulfuron Na^+, N-[[(4,6-dimethoxy-2-pyrimidinyl)amino]-carbonyl]-3-(2,2,2-trifluoroethoxy)-2-pyridinesulfonamide]
[1]; [9]
  % Visual Injury: 29%
[2]
  % Visual Injury: 0%
[3]; [9]
  % Visual Injury: 100%
[3]; [11]
  Fresh Weight: 1.0 g
[4]
  % Visual Injury: 100%
  Fresh Weight: 0.0 g

## COC(=O)c1cccc(C)c1S(=O)(=O)NC(=O)Nc1nc(OCC(F)(F)F)nc(N(C)C)n1 [Triflusulfuron-methyl]
[3]; [11]
  Fresh Weight: 2.1 g

## O=C(O)CNCP(=O)(O)O [glyphosate (ROUNDUP ®)]
[7]; Trial 1: glyphosate (ROUNDUP) 0.5 L/ha
  Control (%): 12%

## Imazamethabenz-methyl
[1]; [10]
  Fresh Weight: 95.0 g

— patent US8203033B2, “Methods and compositions for providing tolerance to multiple herbicides” (Pioneer Hi-Bred International, Inc., priority 2005, dated 2012)
